The test concerns the target T1, HCMV polymerase (Human cytomegalovirus, UniProt P08546).
T1 construct: made in house; host or cells: SF-9 insect cells infected with recombinant baculovirus
The test can be described thus: HCMV polymerase assay (scintillation proximity assay). To be noted: percentage of inhibition at 25 μM concentration in CMV polymerase assay. It is filed as biochemical. An outline of the steps: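 Baculovirus/SF-9-expressed HCMV polymerase in 5.4 mM HEPES pH 7.5, 11.7 mM KCl, 4.5 mM MgCl2, 0.36 mg/ml BSA, 90 nM 3H-dTTP, with or without 2 mM CHAPS. Started with 6 nM biotinylated poly(dA)-oligo(dT), 30 min at 25 or 37 °C, EDTA-stopped, read by streptavidin-SPA counting; % inhibition at 25 μM.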
On the technique in general: In a scintillation proximity assay essentially only radioactivity close to the scintillant gives light.
T1 sequence (P08546 whole entry): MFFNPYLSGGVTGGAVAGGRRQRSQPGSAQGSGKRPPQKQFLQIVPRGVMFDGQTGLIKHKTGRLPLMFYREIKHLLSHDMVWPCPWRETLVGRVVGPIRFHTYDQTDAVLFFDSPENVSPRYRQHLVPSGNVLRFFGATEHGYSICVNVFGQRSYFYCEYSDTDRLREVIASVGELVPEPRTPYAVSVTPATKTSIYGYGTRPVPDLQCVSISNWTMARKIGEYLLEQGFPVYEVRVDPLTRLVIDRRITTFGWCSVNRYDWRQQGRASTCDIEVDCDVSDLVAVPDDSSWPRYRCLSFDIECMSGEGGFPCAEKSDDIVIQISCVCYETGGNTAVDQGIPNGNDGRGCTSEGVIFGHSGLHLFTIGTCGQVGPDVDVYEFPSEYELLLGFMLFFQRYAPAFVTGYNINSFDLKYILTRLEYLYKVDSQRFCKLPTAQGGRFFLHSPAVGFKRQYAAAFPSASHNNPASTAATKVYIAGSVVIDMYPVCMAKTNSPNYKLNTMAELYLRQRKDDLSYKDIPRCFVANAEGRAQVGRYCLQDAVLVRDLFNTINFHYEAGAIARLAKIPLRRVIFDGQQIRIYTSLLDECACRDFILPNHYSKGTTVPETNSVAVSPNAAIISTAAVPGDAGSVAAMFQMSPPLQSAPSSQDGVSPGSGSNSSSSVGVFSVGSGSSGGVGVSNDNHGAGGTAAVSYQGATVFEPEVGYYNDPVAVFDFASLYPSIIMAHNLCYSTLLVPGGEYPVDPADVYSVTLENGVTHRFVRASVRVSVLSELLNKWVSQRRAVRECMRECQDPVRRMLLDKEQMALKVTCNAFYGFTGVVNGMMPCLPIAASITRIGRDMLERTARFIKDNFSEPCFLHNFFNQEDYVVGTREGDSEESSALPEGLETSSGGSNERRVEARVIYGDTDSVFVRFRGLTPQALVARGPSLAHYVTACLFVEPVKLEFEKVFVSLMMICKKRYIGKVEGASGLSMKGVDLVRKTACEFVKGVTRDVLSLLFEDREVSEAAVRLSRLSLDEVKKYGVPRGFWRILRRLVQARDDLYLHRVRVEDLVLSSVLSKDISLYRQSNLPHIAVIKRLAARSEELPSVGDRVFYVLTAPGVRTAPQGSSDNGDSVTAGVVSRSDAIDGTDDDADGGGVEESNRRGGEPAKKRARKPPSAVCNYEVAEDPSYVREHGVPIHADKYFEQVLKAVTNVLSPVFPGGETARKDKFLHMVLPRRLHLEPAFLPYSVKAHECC
For orientation: inhibition means how much of the control response was suppressed. In the case of `CCOc1ccc2ccccc2c1C(=O)Nc1nnc(NC2CCCCCC2)s1` [compound 157, N-[5-(cycloheptylamino)-1,3,4-thiadiazol-2-yl]-2-ethoxy-1-naphthamide], 25 µM produced 53% inhibition. Same read-out and setting: the same measure for `CCOc1ccc2ccccc2c1C(=O)Nc1nnc(NCCCNC2CCCCC2)s1` [compound 27, N-(5-{[3-(cyclohexylamino)propyl]amino}-1,3,4-thiadiazol-2-yl)-2-ethoxy-1-naphthamide]: 92.9%.

`COc1ccccc1C(=O)Nc1nnc(NCc2ccc(F)cc2)s1` [compound 348, N-{5-[(4-fluorobenzyl)amino]-1,3,4-thiadiazol-2-yl}-2-methoxybenzamide] yielded an inhibition at 25 µM of 30.4%.

In turn, `N#Cc1ccc(C(=O)Nc2nnc(NCCc3cccs3)s2)cc1` [compound 102, 4-cyano-N-(5-{[2-(2-thienyl)ethyl]amino}-1,3,4-thiadiazol-2-yl)benzamide] displayed an inhibition at 25 µM of 64.9%. Same read-out and setting: then `NS(=O)(=O)c1ccc(CNc2nnc(NC(=O)/C=C/c3ccccc3)s2)cc1` [compound 32, (E)-N-(5-{[4-(aminosulfonyl)benzyl]amino}-1,3,4-thiadiazol-2-yl)-3-phenyl-2-propenamide], with 90.6%; and `CCCCCCCC/C=C/CCCCCCCC(=O)Nc1nnc(NCc2ccc(Cl)c(Cl)c2)s1` [compound 313, (E)-N-{5-[(3,4-dichlorobenzyl)amino]-1,3,4-thiadiazol-2-yl}-9-octadecenamide], with 33.9%; and `CC(C)(C)OC(=O)CCNc1nnc(NC(=O)c2ccc(C(F)(F)F)cc2)s1` [compound 407, tert-butyl 3-[(5-{[4-(trifluoromethyl)benzoyl]amino}-1,3,4-thiadiazol-2-yl)amino]propanoate], with 25%. Same read-out and setting: then `N#Cc1ccc(C(=O)Nc2nnc(NCc3cccc4ccccc34)s2)cc1` [compound 155, 4-cyano-N-{5-[(1-naphthylmethyl)amino]-1,3,4-thiadiazol-2-yl}benzamide], with 53.3%; and `CCCCCCCCCCCNc1nnc(NC(=O)c2c(C(C)C)cc(C(C)C)cc2C(C)C)s1` [compound 441, 2,4,6-triisopropyl-N-[5-(undecylamino)-1,3,4-thiadiazol-2-yl]benzamide], with 22.5%. The same measure, in the same setting: the same measure for `NS(=O)(=O)c1ccc(CCNc2nnc(NC(=O)c3ccc4c(c3)C(=O)OC4=O)s2)cc1` [compound 15, N-(5-{[4-(aminosulfonyl)phenethyl]amino}-1,3,4-thiadiazol-2-yl)-1,3-dioxo-1,3-dihydro-2-benzofuran-5-carboxamide]: 98.8%; for `CC(=O)NCCNc1nnc(NC(=O)/C=C/c2ccccc2)s1` [compound 400, (E)-N-(5-{[2-(acetylamino)ethyl]amino}-1,3,4-thiadiazol-2-yl)-3-phenyl-2-propenamide]: 25.8%. Consider `O=C(/C=C/c1ccccc1Cl)Nc1nnc(NCCN2CCCC2)s1` [compound 397, (E)-3-(2-chlorophenyl)-N-(5-{[2-(1-pyrrolidinyl)ethyl]amino}-1,3,4-thiadiazol-2-yl)-2-propenamide], for which at 25 µM the inhibition was 25.9%.

As to `CC(C)c1cc(C(C)C)c(C(=O)Nc2nnc(NCCc3ccc(S(N)(=O)=O)cc3)s2)c(C(C)C)c1` [compound 128, N-(5-{[4-(aminosulfonyl)phenethyl]amino}1,3,4-thiadiazol-2-yl)-2,4,6-triisopropylbenzamide], testing at 25 µM gave an inhibition of 58.3%. The same measure, in the same setting: then `O=C(/C=C/c1ccccc1Cl)Nc1nnc(NCCc2c[nH]cn2)s1` [compound 98, (E)-3-(2-chlorophenyl)-N-(5-{[2-(1H-imidazol-4-yl)ethyl]amino}-1,3,4-thiadiazol-2-yl)-2-propenamide], with 65.7%. For `O=C(Nc1nnc(NCCc2ccccc2)s1)c1ccc(I)cc1` [compound 415, 4-iodo-N-[5-(phenethylamino)-1,3,4-thiadiazol-2-yl]benzamide], the inhibition at 25 µM turned out to be 24.6%.

Take `CCOc1ccc2ccccc2c1C(=O)Nc1nnc(NCc2cccs2)s1` [compound 78, 2-ethoxy-N-{5-[(2-thienylmethyl)amino]-1,3,4-thiadiazol-2-yl}-1-naphthamide]: 25 µM produced 68.2% inhibition. Same read-out and setting: then `CC(C)(C)OC(=O)CCNc1nnc(NC(=O)/C=C/c2ccccc2)s1` [compound 120, tert-butyl 3-[(5-{[(E)-3-phenyl-2-propenoyl]amino}-1,3,4-thiadiazol-2-yl)amino]propanoate], with 60%; and `CC(C)c1cc(C(C)C)c(C(=O)Nc2nnc(NCC3CCCCC3)s2)c(C(C)C)c1` [compound 409, N-{5-[(cyclohexylmethyl)amino]-1,3,4-thiadiazol-2-yl}-2,4,6-triisopropylbenzamide], with 24.9%. On the same count and under the same terms, the same measure for `CC(C)c1cc(C(C)C)c(C(=O)Nc2nnc(NC3CCCCCC3)s2)c(C(C)C)c1` [compound 250, N-[5-(cycloheptylamino)-1,3,4-thiadiazol-2-yl]-2,4,6-triisopropylbenzamide]: 40.5%. The same measure, in the same setting: then `CCOc1ccc2ccccc2c1C(=O)Nc1nnc(NCCc2cccs2)s1` [compound 97, 2-ethoxy-N-(5-{[2-(2-thienyl)ethyl]amino}-1,3,4-thiadiazol-2-yl)-1-naphthamide], with 65.8%; and `CCOc1ccc2ccccc2c1C(=O)Nc1nnc(NCCCn2ccnc2)s1` [compound 242, 2-ethoxy-N-(5-{[3-(1H-imidazol-1-yl)propyl]amino}-1,3,4-thiadiazol-2-yl)-1-naphthamide], with 41.3%. The compound `CC(C)(C)OC(=O)CCNc1nnc(NC(=O)/C=C/c2ccccc2Cl)s1` [compound 426, tert-butyl 3-[(5-{[(E)-3-(2-chlorophenyl)-2-propenoyl]amino}-1,3,4-thiadiazol-2-yl)amino]propanoate] yielded an inhibition at 25 µM of 23.5%.

For the compound `CCOc1ccc2ccccc2c1C(=O)Nc1nnc(NCCc2c[nH]c3ccccc23)s1` [compound 141, 2-ethoxy-N-(5-{[2-(1H-indol-3-yl)ethyl]amino}-1,3,4-thiadiazol-2-yl)-1-naphthamide], the inhibition at 25 µM stood at 55.7%.

In the case of `O=C(Nc1nnc(NCC(c2ccccc2)c2ccccc2)s1)c1ccc(S(=O)(=O)F)cc1` [compound 111, 4-[({5-[(2,2-diphenylethyl)amino]-1,3,4-thiadiazol-2-yl}amino)carbonyl]benzenesulfonyl fluoride], the “% Inhib” value is listed as 62.6%. The compound `CCCCCCCC/C=C/CCCCCCCC(=O)Nc1nnc(NCCc2c[nH]c3ccccc23)s1` [compound 149, (E)-N-(5-{[2-(1H-indol-3-yl)ethyl]amino}-1,3,4-thiadiazol-2-yl)-9-octadecenamide] returned an inhibition at 25 µM of 54.5%. Same read-out and setting: then `O=C(Nc1nnc(NCc2ccc(F)cc2)s1)c1cccc([N+](=O)[O-])c1` [compound 302, N-{5-[(4-fluorobenzyl)amino]-1,3,4-thiadiazol-2-yl}-3-nitrobenzamide], with 34.8%.

Turning to `O=C(Nc1nnc(NCCC(c2ccccc2)c2ccccc2)s1)c1ccc(S(=O)(=O)F)cc1` [compound 217, 4-[({5-[(3,3-diphenylpropyl)amino]-1,3,4-thiadiazol-2-yl}amino)carbonyl]benzenesulfonyl fluoride], the “% Inhib” value is 43.9%.

These data come from patent US6150385A, “1,3,4-thiadiazoles useful for the treatment of CMV infections” (Pharmacia & Upjohn Company, priority 1999, dated 2000).
